Entries after “also recorded” stand apart in the source; their conditions may differ. A value given as a limit tells only on which side of the number the result lay.

One may read the Papp as the rate of passage across a membrane or cell layer, normalised by area and donor concentration. The MRT is the average time that molecules of a dose stay in the body. What is called half-life is the time needed for the level to fall by half in the phase considered. Usually % inhibition stands for how much of the control response was suppressed. A low value points to little suppression. In general, NOAEL refers to the highest dose or exposure tested at which no adverse effect was seen. In general, Ki refers to a measure of affinity in units of concentration, obtained from inhibition or displacement. For orientation: inhibition means the relative decrease from the control value, in per cent. Higher therefore signals strong suppression.

One data set concerns the target T1, M2 mAChR (Homo sapiens, UniProt P08172).
T1 construct: expressed in transfected cells; host or cells: 'modified cell cultures' giving a Ca increase; modification not described
Nature of the data set: Intracellular Ca increase in modified cell cultures, M2. Format: cell-based. Particulars: 10^−9–10^−3M.

For data set [1], the target named is T2, M3 (human) (Homo sapiens, UniProt P20309). Kind of data set: Binding study, M3 (human). The note with it: 10 μm.
In data set [2] the target is T2, M3 (human). Nature of the data set: PI hydrolysis in cells transfected with human M3. Format: cell-based. More on the design: expressed in transfected cells.
For another data set, the target named is T3, M5 receptor (Homo sapiens, UniProt P08912).
T3 construct: expressed in transfected cells
Nature of the data set: PI hydrolysis in cells transfected with human M5. The class given is cell-based.

Another data set addresses CYP1A2 (Homo sapiens, UniProt P05177). Nature of the data set: Cytochrome P450 inhibition, CYP1A2. Format: in vitro ADME. Particulars: up to 10 μM. The method, then: (§1) Cytochrome P450 activity can be an indicator for potential drug-drug interactions. AF292 was evaluated in a microtiter plate assay for P450 inhibition.
Another data set deals with Caco-2 monolayers. Nature of the data set: Caco-2 cell permeability. The class given is in vitro ADME, human. The method, then:
(§2) This test is used to determine intestinal permeability of tested compounds. Caco-2 cells, when grown on semipermeable filters, spontaneously differentiate in culture to form confluent monolayers which both structurally and functionally resemble the small intestinal epithelium. Because of this property they are useful as an in vitro model for the study of drug absorption and metabolism during absorption in the intestinal mucosa. Caco-2 monolayers were grown to confluence on collagen-coated, microporous, polycarbonate membranes in 12 well plates and permeability of the test material was determined.

The next data set in a line: Caco-2 cell permeability. The class given is in vitro ADME, human. Particulars: human, Caco-2; bi-directional assay; read-out: average permeability coefficient (Papp). As for the experimental part: as §2
For orientation: Caco-2 cells form a polarised layer with tight junctions and transporters.

The test system of data set [3] is Isolated Guinea Pig Right Atrium. Kind of data set: Isolated guinea pig right atrium. As for the experimental part: (§3) • 1. Astemizole (human ether-a-go-go related gene (HERG) Channel) Binding Assay. […] Isolated Guinea Pig Right Atrium (atrial fibrillation). […] Effects of AF292 (dose 5 mg/kg orally) on cardiac electrophysiological, cardio-haemodynamic in instrumented, awake dogs. Healthy trained and chronically instrumented female Beagle dogs of varying age and ranging in body weight from 9.4 to 12 kg, were used for recording of the cardiovascular parameters: heart rate, diastolic and systolic blood pressure, pressure rate product, LV dp/dt max, LV dp/dt max/pd, LV dp/dt min, cardiac output, stroke volume, systemic vascular resistance and the ECG parameters (PQ-, QRS-, QT-, QTcBazett-(QTcB), QTcFridericia-(QTcF) and QTcVan de Water-(QTcVdW) interval duration and QT-dispersion. During the last 18 hours prior to the experiments, the dogs had no access to food. Water was available ad libitum. At the beginning of each experiment, control values of the various parameters were recorded for at least 30 min. Thereafter, 5 mg/kg of AF292 (n=4) or the corresponding volume of the solvent (n=4) was administered orally by gavage. The various haemodynamic parameters were recorded continuously for 4 hours thereafter.

The target in the next data set is T4, human M1 (Homo sapiens, UniProt P11229).
T4 sequence (P11229 1-460): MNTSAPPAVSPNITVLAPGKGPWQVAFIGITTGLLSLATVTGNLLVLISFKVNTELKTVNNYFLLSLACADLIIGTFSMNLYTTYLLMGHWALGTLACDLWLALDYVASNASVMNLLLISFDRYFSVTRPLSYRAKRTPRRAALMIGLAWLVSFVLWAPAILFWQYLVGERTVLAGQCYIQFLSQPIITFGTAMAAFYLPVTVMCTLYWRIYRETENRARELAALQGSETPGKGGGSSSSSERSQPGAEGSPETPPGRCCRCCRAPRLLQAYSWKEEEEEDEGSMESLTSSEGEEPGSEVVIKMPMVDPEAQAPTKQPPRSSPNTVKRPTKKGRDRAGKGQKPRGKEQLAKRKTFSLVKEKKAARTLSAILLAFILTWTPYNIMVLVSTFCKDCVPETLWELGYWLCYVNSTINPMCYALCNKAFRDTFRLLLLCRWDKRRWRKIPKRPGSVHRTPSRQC
Kind of data set: Binding study, M1 (human). The note with it: 10 μm.

The nature of data set [4]: Cardiac electrophysiology and haemodynamics in awake dogs. Format: in vivo, Beagle dogs. The note with it: 5 mg/kg orally. As for the experimental part:
as §3

A further data set concerns the target M2 (human) (Homo sapiens, UniProt P08172). Nature of the data set: Binding study, M2 (human). Particulars: 10 μm.
In the next data set the target is CPY2D6 (Homo sapiens, UniProt P10635). Kind of data set: Cytochrome P450 inhibition, CYP2D6. Format: in vitro ADME. The note with it: up to 10 μM. The method, then: as §1
Another data set has as its target hERG-encoded channel (Homo sapiens, UniProt Q12809). Kind of data set: Astemizole (HERG channel) binding assay. As for the experimental part: as §3
A short description of data set [5]: Ex vivo brain penetration in mice (GC and binding). Particulars: for half-life: mice brain.
Data set [6] has as its system Opiods/Opiate, Non-Selective. Kind of data set: Opiate non-selective binding. Particulars: at 10^−4 M.
Data set [7] in a line: Chronic oral toxicity up to 13 weeks, dog.
The target in data set [8] is mAChR receptors, Rat Cortical (CTX) Membranes. Format: binding. Particulars: read-out: Ki, QNB.
Another data set deals with β-catenin. Kind of data set: β-catenin stabilization in rat hippocampal neurons. Format: cell-based. As for the experimental part: This study was performed in rat hippocampal primary cell cultures using the methods described by Garrido J L et al. (FASEB J 2002; 16:1982).
The next data set has as its target muscarinic receptor. Nature of the data set: [3H]OXO-M competition binding. The note with it: rat cortex.
For a further data set, the target named is Serotonin, 5HT3 (Homo sapiens, UniProt P46098). Nature of the data set: Serotonin 5HT3 binding. Particulars: at 10^−4 M.
Chain of Serotonin, 5HT3 (P46098 24-478): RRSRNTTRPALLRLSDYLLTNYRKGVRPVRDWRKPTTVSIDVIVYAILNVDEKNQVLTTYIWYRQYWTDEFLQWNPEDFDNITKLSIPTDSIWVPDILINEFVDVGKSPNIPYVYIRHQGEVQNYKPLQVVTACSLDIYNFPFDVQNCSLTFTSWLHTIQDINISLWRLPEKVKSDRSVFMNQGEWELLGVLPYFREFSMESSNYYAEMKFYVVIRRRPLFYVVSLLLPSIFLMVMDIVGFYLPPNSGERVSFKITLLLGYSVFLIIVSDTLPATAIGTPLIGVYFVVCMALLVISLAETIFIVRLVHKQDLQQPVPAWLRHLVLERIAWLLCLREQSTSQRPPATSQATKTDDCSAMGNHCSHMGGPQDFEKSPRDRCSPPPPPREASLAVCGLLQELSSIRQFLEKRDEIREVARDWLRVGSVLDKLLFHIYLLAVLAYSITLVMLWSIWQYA

T2 sequence (P20309 whole entry): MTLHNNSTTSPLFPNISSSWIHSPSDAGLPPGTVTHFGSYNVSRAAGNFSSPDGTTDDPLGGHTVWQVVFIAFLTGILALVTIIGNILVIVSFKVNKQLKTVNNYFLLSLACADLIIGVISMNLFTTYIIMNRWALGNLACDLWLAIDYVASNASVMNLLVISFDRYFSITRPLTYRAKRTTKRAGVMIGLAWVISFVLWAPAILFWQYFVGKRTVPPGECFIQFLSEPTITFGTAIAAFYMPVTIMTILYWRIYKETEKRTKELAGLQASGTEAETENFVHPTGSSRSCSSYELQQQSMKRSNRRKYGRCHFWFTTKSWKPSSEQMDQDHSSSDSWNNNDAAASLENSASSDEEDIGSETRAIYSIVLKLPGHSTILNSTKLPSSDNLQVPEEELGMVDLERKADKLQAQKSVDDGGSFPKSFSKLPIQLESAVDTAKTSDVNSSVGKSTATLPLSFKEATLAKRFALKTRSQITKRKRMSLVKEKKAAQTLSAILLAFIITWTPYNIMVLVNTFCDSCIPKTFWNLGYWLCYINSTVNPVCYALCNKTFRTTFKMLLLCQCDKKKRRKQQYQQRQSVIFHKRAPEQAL
T3 sequence (P08912 whole entry): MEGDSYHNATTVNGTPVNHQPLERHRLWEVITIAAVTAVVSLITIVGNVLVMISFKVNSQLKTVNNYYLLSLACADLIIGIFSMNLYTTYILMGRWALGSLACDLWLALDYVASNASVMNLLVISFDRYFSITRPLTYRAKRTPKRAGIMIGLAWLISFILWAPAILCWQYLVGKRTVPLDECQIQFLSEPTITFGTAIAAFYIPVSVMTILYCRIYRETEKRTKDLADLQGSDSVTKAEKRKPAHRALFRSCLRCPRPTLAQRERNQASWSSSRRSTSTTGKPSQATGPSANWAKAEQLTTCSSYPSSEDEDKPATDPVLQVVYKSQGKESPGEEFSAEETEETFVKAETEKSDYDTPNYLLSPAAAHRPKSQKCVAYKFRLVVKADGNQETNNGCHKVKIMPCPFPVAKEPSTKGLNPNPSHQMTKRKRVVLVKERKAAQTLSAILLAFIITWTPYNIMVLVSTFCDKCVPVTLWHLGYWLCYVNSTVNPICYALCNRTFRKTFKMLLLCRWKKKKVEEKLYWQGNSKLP
T1 sequence (P08172 whole entry): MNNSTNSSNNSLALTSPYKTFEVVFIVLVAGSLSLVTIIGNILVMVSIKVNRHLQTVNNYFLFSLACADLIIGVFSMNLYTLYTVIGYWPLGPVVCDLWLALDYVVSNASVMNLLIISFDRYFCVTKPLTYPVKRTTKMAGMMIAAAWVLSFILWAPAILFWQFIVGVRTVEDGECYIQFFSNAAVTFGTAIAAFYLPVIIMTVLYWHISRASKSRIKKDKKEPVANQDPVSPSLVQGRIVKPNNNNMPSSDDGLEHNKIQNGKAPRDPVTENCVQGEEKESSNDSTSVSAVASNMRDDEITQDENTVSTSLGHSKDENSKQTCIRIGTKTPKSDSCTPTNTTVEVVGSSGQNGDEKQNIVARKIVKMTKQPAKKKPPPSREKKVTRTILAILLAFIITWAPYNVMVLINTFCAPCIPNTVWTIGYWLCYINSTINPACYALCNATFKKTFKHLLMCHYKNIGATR
Chain of hERG-encoded channel (Q12809 whole entry): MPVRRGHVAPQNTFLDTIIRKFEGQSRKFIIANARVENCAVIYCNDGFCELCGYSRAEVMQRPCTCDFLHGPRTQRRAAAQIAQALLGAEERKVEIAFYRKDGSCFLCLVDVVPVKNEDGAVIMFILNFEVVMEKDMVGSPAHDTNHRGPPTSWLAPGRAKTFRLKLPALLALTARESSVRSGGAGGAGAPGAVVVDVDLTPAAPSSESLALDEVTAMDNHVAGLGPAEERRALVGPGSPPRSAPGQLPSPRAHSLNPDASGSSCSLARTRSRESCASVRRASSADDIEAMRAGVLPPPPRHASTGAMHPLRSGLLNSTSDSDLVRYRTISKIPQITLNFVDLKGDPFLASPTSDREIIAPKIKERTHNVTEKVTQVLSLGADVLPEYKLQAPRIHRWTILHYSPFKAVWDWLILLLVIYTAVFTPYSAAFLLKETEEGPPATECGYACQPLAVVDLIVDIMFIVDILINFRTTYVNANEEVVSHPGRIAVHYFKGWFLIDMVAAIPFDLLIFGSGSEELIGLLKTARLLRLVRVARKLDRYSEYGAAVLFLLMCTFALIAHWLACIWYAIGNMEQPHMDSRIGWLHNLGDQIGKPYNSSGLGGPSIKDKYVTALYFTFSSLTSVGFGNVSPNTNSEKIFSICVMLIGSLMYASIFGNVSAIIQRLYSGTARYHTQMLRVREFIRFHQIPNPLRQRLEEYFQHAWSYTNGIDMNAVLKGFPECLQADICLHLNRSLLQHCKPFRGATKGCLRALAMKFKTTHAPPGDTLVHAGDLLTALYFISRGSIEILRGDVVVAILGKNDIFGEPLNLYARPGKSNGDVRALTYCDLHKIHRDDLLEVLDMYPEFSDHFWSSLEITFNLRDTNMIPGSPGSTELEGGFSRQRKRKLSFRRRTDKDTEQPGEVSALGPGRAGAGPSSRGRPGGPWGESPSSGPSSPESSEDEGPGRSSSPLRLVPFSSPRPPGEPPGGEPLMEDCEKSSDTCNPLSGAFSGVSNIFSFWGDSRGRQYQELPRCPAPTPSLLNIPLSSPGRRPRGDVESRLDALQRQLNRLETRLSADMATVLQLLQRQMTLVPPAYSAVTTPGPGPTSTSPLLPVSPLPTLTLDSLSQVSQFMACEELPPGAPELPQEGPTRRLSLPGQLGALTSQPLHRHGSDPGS
Chain of CYP1A2 (P05177 whole entry): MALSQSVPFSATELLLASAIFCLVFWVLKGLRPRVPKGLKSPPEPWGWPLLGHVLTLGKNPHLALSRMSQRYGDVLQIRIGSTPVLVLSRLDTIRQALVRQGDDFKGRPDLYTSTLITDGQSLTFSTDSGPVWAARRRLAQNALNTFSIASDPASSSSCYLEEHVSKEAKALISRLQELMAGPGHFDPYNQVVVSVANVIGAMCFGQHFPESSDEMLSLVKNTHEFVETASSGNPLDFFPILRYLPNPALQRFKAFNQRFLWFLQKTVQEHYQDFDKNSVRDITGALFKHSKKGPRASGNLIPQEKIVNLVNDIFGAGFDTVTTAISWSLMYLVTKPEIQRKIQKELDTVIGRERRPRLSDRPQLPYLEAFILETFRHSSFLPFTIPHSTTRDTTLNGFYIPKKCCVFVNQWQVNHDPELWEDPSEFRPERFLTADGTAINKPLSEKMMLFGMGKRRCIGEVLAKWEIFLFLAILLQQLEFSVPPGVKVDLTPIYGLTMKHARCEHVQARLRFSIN
Chain of M2 (human) (P08172 whole entry): as the sequence (P08172 whole entry) above
Chain of CPY2D6 (P10635 whole entry): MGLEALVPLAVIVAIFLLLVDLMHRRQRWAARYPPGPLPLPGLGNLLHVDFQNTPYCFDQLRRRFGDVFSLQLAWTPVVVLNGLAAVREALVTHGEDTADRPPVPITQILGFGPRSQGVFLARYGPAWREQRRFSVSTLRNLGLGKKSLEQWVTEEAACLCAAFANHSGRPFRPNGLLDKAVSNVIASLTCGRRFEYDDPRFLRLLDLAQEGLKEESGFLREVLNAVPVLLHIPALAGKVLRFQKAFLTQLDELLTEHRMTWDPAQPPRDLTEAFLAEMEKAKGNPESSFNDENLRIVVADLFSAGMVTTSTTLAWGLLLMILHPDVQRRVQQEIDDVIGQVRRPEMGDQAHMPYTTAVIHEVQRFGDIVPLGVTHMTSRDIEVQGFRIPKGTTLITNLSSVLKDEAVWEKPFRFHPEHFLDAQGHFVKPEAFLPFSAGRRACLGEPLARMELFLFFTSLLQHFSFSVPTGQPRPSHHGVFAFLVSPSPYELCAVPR

With `CC[C@@H]1SC2(CCNCC2)NC1=O` [AF292, (S)-2-Ethyl-1-thia-4,8-diaza-spiro[4.5]decan-3-one], the “Agonist activity at M2” value on M2 mAChR was “inactive as an agonist; also recorded: M2 mAChR - no effects as agonist”. For the same compound, the “Binding, %” value on M3 (human) [1] amounted to 55%; on human M1, 55%; on M2 (human) it was 61%. Moreover, at M3 (human) [2] (human M3), the “PI turnover vs. carbachol, M3” value is “No activity; also recorded: PI., AA: M3 mAChR: Not active as agonist”. For the same compound, the Kb on M3 (human) [2] (read-out: pKb, M3 antagonist (converted)) is 660 nM. The “PI turnover, M5, agonist activity” value at M5 receptor was “No activity; also recorded: PI, AA: M5 mAChR - no effect as agonist”. Further, the “Inhibition of CYP1A2” value at CYP1A2 was “did not induce significant inhibition”. For the same compound, the Absorption potential ranking entry in the data set with Caco-2 monolayers was “high absorption potential”. The Papp in “Caco-2 cell permeability” stood at 17.4 ×10⁻⁶ cm/s. Also, the Contractile force result in data set [3] is listed as “no significant effect on contractile force”. Also, the Contractile rate result in [3] is recorded as “tended to slightly reduce the contractile rate”. Besides, the “Hemodynamic and ECG parameters” value in [4] is “no statistically significant and relevant effect”. The “Inhibition of CPY2D6” value on CPY2D6 is given as “did not induce significant inhibition”. In addition, the “[3H]-Astemizole binding inhibition” value on hERG-encoded channel is “inactive”.

As for `CC1=NCC2(CCN(C)CC2)S1` [AF150(S), 2,8-Dimethyl-1-thia-3,8-diaza-spiro[4.5]dec-2-ene], the brain penetration time in data set [5] (iv) came out at 1 min. In addition, the MRT in [5] (mouse, in vivo, 100 μmole/kg) was 50 min. Further, the half-life in data set [5] (mouse, in vivo, iv, T1/2, first phase) amounted to 21 min; in data set [5] (mouse, in vivo, iv, T1/2, second phase), 53 min.

Regarding `CC[C@@H]1SC2(CCN(C)CC2)NC1=O` [AF267B, (S)-2-ethyl-8-methyl-1-thia-4,8-diaza-spiro[4.5]decan-3-one], the “% inhibition” value in data set [6] worked out at 52.5%. Besides, the NOAEL in data set [7] (beagle, dog, in vivo, po) is 6 to 9 mg/kg/day. Also, the “Dose at which effects are seen” value in data set [7] (dog) is more than 9 mg/kg. Moreover, in [7] (up to 13 weeks oral), the ECG changes entry is given as “no changes in the ECG”. Also, the Ki in data set [8] was 49.6 ± 9 µM; on muscarinic receptor, 1620 ± 340 nM. Besides, the results for the “soluble β-catenin level” value with β-catenin (1 μM), in the data set with β-catenin (10 μM) and in the data set on β-catenin (100 μM) were 100%, 300% and 350%, respectively. The “nuclear β-catenin vs control” value with β-catenin (1 μM, Aβ1–40 (5 μM)) worked out at 140%. The “Aβ-induced degradation of soluble β-catenin” value in the data set on β-catenin (100 μM, Aβ1–40 (5 μM)) is listed as “this degradation was prevented”. In addition, the inhibition at 100 µM on Serotonin, 5HT3 came out at 51.3%.

For the origin of these results see US7049321B2, “Methods and pharmaceutical compositions for treatment of central and peripheral nervous system disorders and compounds useful therefor” (Israel Institute for Biological Research, priority 2002, dated 2006).
